Laboratory results as given in patent publication US6838592B1, “Methods for the identification of compounds for the treatment of alzheimer's disease” (Nathan S. Kline Institute for Psychiatric Research, priority 1999, dated 2005).
Entries after “also recorded” stand apart in the source; their conditions may differ. Blank lines part the entries; values can stand above or below the compound they belong to. Non-standard residues stand in square brackets, D forms with d. Residues, ends and D or L forms follow the SMILES beside them. *: point of attachment. Sta = CC(C)C[C@H](N)[C@@H](O)CC(=O)O; Isovaleryl = CC(C)CC(=O)*

Tests used:
[1] = target: T1, Cat D (Mus musculus, UniProt P18242); experiment: Cat D activity in brains of PS1M146L/APPswe transgenic mice infused with protease inhibitor; assay type: in vivo; conditions: 2 mg/mL pepstatin or 10 mg/mL leupeptin, vs untreated
T1 construct: from tissue; host or cells: mouse brain (sections and hemi-brain homogenates)
Method: To administer the candidate compounds in the presence or absence of inhibitor(s), eight week old mice are anesthetized with pentobarbital (40-50 mg/kg i.p.) and placed in a stereotaxic apparatus with mouse adapter (David Kopf Instruments, Tujunga, Calif.). After sacrifice, placement of the probe into the lateral ventricle is confirmed and one hemi-brain immersion-fixed and the other hemi-brain homogenized for protease assays. We determine the efficacy of the candidate compound by assaying the activity of proteases in brain homogenates (e.g., Cat B, Cat L, Cat D, and trypsin (Brunk et al., Free Radic. Biol. Med. 19:813-822, 1995; Marotta and Nixon, J. Neurochem. 43:507-516, 1984; Koshikawa et al., Am. J. Pathol. 153:937-944, 1998); see, for example, Cat D shown in FIG. 11F). […] Lipofuscin granules are defined at the EM level as having a single layer of membrane and a bipartite structure consisting of electron lucent lipoid material and electron dense material (Cataldo and Nixon, Ann. N.Y. Acad. Sci. 679: 87-109, 1993).
We also performed protease inhibitor infusion experiments in PS1M146L/APPswe transgenic mice. […] Animals were sacrificed at 12 weeks of age, and total Aβ levels were determined by ELISA following formic acid extraction (FIG. 10A). […] We have additionally measured the activity of Cat D in the brains of untreated, pepstatin-treated, or leupeptin-treated mice (FIG. 10B).

[2] = test system: Aβ; experiment: Total Aβ by ELISA after formic acid extraction in PS1M146L/APPswe transgenic mice infused with protease inhibitor; assay type: in vivo; conditions: infusion from 8 to 12 weeks of age
Method: We also performed protease inhibitor infusion experiments in PS1M146L/APPswe transgenic mice. Infusion pumps containing either 2 mg/mL pepstatin or 10 mg/mL leupeptin were implanted into PS1M146L/APPswe transgenic mice at 8 weeks of age. Animals were sacrificed at 12 weeks of age, and total Aβ levels were determined by ELISA following formic acid extraction (FIG. 10A). […] Leupeptin treatment, on the other hand, increased total Aβ by 1.8 times when compared to untreated mice. We have additionally measured the activity of Cat D in the brains of untreated, pepstatin-treated, or leupeptin-treated mice (FIG. 10B).
The Aβ sandwich ELISA is generally known to those skilled in the art, with both Aβ ELISA kits (Biosource International, Camavillo, Calif.) and appropriate antibodies (e.g., 4G8, GE10; Seneteck, PLC, Napa, Calif.) available commercially. For the Aβ sandwich ELISA, Nunc-Immuno Plates (Nunc A/S Roskilde, Denmark) were coated overnight at […] using antibodies specific for Aβ40 or Aβ42 in 100 mM bicarbonate buffer, pH 9.6. […] Aβ was detected by incubating for 4 hours at room temperature with an HPR-conjugated anti-Aβ antibody in 20 mM Na phosphate, 2 mM EDTA, 400 mM NaCl, 1.0% BSA. ELISA plates were developed using a color reaction (ABTS Peroxidase Substrate System, Kirkegaard & Perry, Gaithersburg, Md.) and the OD450 read.

[3] = test system: lipofuscin-like material in neurons; conditions: chronic inhibition (7+days) by infusion; cited from earlier work
[4] = test system: lipofuscin; experiment: Lipofuscin autofluorescence in fixed brain tissue after intraventricular leupeptin infusion; assay type: in vivo, mice; conditions: 5 mg/mL leupeptin, four weeks, vs vehicle (20 mM HEPES)
[5] = test system: cortical mantle; experiment: Nissl staining and cortical mantle thickness in PS1M146L/APPswe transgenic and non-transgenic mice infused with leupeptin; assay type: in vivo
Method: (§1) Several studies have recently raised the possibility that abnormal forms of tau is metabolized in lysosomes. […] There are numerous assays for tau known in the art. For example, the processing of tau by immunocytochemistry and Western blot analysis is performed using an antibody that recognizes both phosphorylated and non-phosphorylated forms (Adamec et al., Brain Res. 757:93-101, 1997). Abnormal tau conformation and hyperphosphorylated tau is examined using suitable monoclonal antibodies. (e.g., MC1 (Jicha et al., J. Neurosci. Res. 48:128-132) and AT8 (Innogenetics, Gent, Belgium)). EM analysis can be performed to characterize cytoskeletal changes in neurons (Nixon, Bioessays 20:798-807, 1998). Alternatively, the magnitude of neurodegeneration in the mice can be determined by Nissl stain.
As a second example of the usefulness of inducing lysosomal system dysfunction by protease inhibitor infusion, we treated PS1M146L/APPswe transgenic mice, an established model of AD-like pathology (Duff et al., Nature 383:710-713, 1996). Infusion pumps containing 5 mg/mL leupeptin were implanted into PS1M146L/APPswe transgenic mice at 1 year of age. Animals were sacrificed 4 weeks later.
We confirmed this observation by measuring the thickness of the cortical mantle in these mice (FIG. 15). […] One current limitation of the existing mouse models of AD is their failure to show substantial neuronal atrophy and/or neuronal cell loss, key features of the disease in humans.

[6] = test system: tau; experiment: Western blot analysis of tau in brain of leupeptin-infused mice; assay type: in vivo
Method: as §1

T1 sequence (P18242 65-410): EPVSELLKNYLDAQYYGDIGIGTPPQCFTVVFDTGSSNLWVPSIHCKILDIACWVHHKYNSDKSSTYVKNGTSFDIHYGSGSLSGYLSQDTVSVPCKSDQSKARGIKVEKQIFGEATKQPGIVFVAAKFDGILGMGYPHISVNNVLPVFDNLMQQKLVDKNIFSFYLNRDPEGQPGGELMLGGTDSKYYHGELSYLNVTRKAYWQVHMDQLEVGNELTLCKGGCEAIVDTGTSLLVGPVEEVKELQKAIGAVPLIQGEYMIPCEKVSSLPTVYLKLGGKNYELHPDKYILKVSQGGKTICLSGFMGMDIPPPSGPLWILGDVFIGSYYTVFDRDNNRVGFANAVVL

activity of Cat D in the brain [1]: reduced activity of Cat D
Compound: CC(C)CC(=O)N[C@H](C(=O)N[C@H](C(=O)N[C@@H](CC(C)C)[C@@H](O)CC(=O)N[C@@H](C)C(=O)N[C@@H](CC(C)C)[C@@H](O)CC(=O)O)C(C)C)C(C)C [pepstatin] (Isovaleryl-VV[Sta]A[Sta]-OH)
total Aβ level relative to untreated mice ([2]; 2 mg/mL pepstatin): reduced to half the level

Compound: CCN(CC)CCCC(C)Nc1ccnc2cc(Cl)ccc12 (stereo not drawn) [chloroquine]
accumulation of lipofuscin-like material in neurons [3]: results in accumulation of lipofuscin-like material in neurons

Compound: CC(=O)N[C@@H](CC(C)C)C(=O)N[C@@H](CC(C)C)C(=O)N[C@H](C=O)CCCNC(=N)N [leupeptin]
accumulation of lipofuscin-like material in neurons [3]: results in accumulation of lipofuscin-like material in neurons
lipofuscin autofluorescence [4]: increase in lipofuscin autofluorescence; also recorded: lipotuscin autofluorescence in sections of leupeptin-treated but not vehicle-treated brains
activity of Cat D in the brain [1]: increased Cat D activity
total Aβ increase compared to untreated mice ([2]; 10 mg/mL leupeptin): 1.8 times
reduction of thickness of the cortex ([5]; PS1M146L/APPswe mouse, 5 mg/mL leupeptin, 4 weeks): over 20%
Nissl staining of cortex ([5]; PSM146L/APPswe mouse, 5 mg/mL leupeptin, 4 weeks, vs non-transgenic littermate also infused with leupeptin): substantial cortical neuronal hypotrophy, chromatolysis and possibly loss of neurons
thickness of the cortical mantle ([5]; non-transgenic mouse, leupeptin vs vehicle): small decrease
lower molecular weight forms of tau (Mr~30-34 kDa) by Western blot [6]: increase in the lower molecular weight forms of tau

Compound: aprotinin
accumulation of lipofuscin-like material in neurons [3]: does not
